From patent publication US20260191861A1, “INFLAMMASOME AND VEGF INHIBITION FOR RETINAL VASCULAR DISEASES” (University of Virginia Patent Foundation, priority 2022, published 2026)

Tests used:
[1] = test system: participants with diabetic macular edema; experiment: Visual acuity (VALS) compared with synthetic controls from the DRCR.net Protocol T study (IPTW, propensity score matching, GEE); format: in vivo, human; conditions: for Model-based contrast: change in visual acuity, Lamivudine vs. Aflibercept / Model-based contrast: change in visual acuity, Lamivudine vs. Bevacizumab / Model-based contrast: change in visual acuity, Lamivudine vs. Ranibizumab: IPTW model; for Mixed-effect model: change in visual acuity from baseline, Lamivudine vs Placebo / Mixed-effect model: change in visual acuity from baseline, Lamivudine vs. Aflibercept / Mixed-effect model: change in visual acuity from baseline, Lamivudine vs. Bevacizumab / Mixed-effect model: change in visual acuity from baseline, Lamivudine vs. Ranibizumab: propensity score matching
Description: The second analysis included participants from the lamivudine versus placebo trial, along with a synthetic comparator created using data from the DRCR.net Protocol T study. The source of the data is DRCR.net (2018) A Comparative Effectiveness Study of Intravitreal Aflibercept, Bevacizumab and Ranibizumab for Diabetic Macular Edema, retrieved from https://public.jaeb.org/drcrnet/stdy/download/206. The analyses, content, and conclusions presented herein are solely the responsibility of the authors and have not been reviewed or approved by DRCR.net.
Inclusion criteria for participants from the DRCR.net Protocol T study were based on their similarity to the lamivudine versus placebo trial design. This involved selecting only patients with type 2 diabetes, study eyes with a baseline VALS<69, and complete follow-up visual acuity measurements at weeks 4 and 8.
(§1) Propensity score methods were used to select DRCR.net Protocol T study participants similar to lamivudine-treated patients. Inverse probability treatment weights (IPTW) and propensity score matching were used. To estimate the IPTW weights, a multinomial logistic regression was used to estimate propensity scores using important predictors including baseline visual acuity and baseline central subfield thickness along with age, gender, and duration of diabetes. Weights were calculated as the reciprocal of the estimated propensity score of the actual treatment received. Weights were then truncated at the 99th percentile. For the propensity score matched analysis, lamivudine-treated patients were matched to each DRCR.net Protocol T treatment arm (aflibercept, bevacizumab, ranibizumab) and placebo group, separately. Due to the limited sample size for matching within each group, propensity score models included the most important predictors of acuity change including baseline visual acuity, age and duration of diabetes.
(§2) For the IPTW analysis, a mixed-effects weighted model was fit with subject-specific random effects. […] The model's estimates, confidence intervals (CI), and P values were reported for each predictor. Additionally, model-based contrasts were conducted to compare the change in VALS from baseline between lamivudine and the Protocol T treatments.
For each propensity score matched group (e.g., lamivudine-bevacizumab, lamivudine-aflibercept), a mixed effect model was fit estimating the change in visual acuity from baseline. Subject specific random effect was included along with fixed effect predictors: treatment group, baseline VALS, central subfield thickness, eye (left vs right), age, sex, race and type 2 diabetes duration.
(§3) Secondary outcomes included the change in central subfield thickness, the percentage of eyes with an improvement in VALS of 15 or more, the correlation between improvements in visual acuity and central subfield thickness, and systemic and ocular adverse events. Change in central subfield thickness was estimated using mixed-effects models, similar to the VALS analysis. To analyze a VALS improvement of at least 15 letters, logistic regression using generalized estimating equations (GEEs) was specified with an exchangeable correlation matrix. Model-based contrasts were estimated to make pairwise treatment comparisons.

[2] = test system: photoreceptors (TUNEL+ cells in the ONL); experiment: RRD model: TUNEL assay of the retinal outer nuclear layer; format: in vivo, mouse; conditions: day 3 RRD, equimolar IP doses twice daily (K-9H 60 mg/kg, 3TC 50 mg/kg)
Method: All experiments involving animals were approved by the University of Virginia Institutional Animal Care and Use Committee (IACUC) and adhered to the Association for Research in Vision and Ophthalmology (ARVO) Statement for the Use of Animals in Ophthalmic and Vision Research. Animal subjects were male and female mice aged 6 to 10 weeks. Wild type C57BL/6J mice were obtained from the Jackson Laboratory (Bar Harbor, ME, USA). To anesthetize mice for study procedures, ketamine hydrochloride (100 mg/kg; Ft. Dodge Animal Health, Overland Park, KS, USA) and xylazine (10 mg/kg; Phoenix Scientific, St. Joseph, MO, USA) were delivered by intraperitoneal (IP) injection. Pupils were dilated with topical 1% tropicamide and 2.5% phenylephrine (Alcon Laboratories, Ft. Worth, TX, USA).
RRD model was established by subretinal injection (SRI) of 3 μl 1% carboxymethyl cellulose (CMC; Refresh Liquigel, Allergan, Irvine, CA, USA).
NRTIs and K-9 were delivered via intraperitoneal (IP) injection in equimolar amounts. […] Kamuvudine K-9 (3-methyl-3TC, MW=273 g/mol) was administered either at a low dose (K-9L; 90 mg/kg daily) or a high dose (K-9H; 60 mg/kg twice daily, equimolar to NRTI doses). IP injection of phosphate buffered saline (PBS) was used as control.
Retinal cross cryosections at a thickness of 10 μm were stained with TUNEL (TdT-mediated dUTP nick-end labeling) using the In Situ Cell Death Detection Kit (Roche Diagnostics, Indianapolis, IN, USA) according to the manufacturer's′ instructions. The sections were wet-mounted with ProLong anti-fade reagent with DAPI (P36935, ThermoFisher Scientific, Waltham, MA, USA) and visualized using an A1R laser confocal microscope (Nikon, Tokyo, Japan). Fourteen representative sections, including the optic nerve, were used per treatment group. To calculate the number of TUNEL+ cells in the outer nuclear layer (ONL), the retina analysis toolkit of ImageJ (2.1.0; NIH, Bethesda, MD, USA) was used.

[3] = test system: participants with diabetic macular edema; experiment: Retinal central subfield thickness by spectral-domain OCT, including synthetic controls from DRCR.net Protocol T; format: in vivo, human
Method: as §1, §2, §3
In all consultations, patients underwent tomography with the Spectralis device (Heidelberg) under mydriasis. The acquisition protocol was the 6×6 mm region centered on the fovea. Data analysis from SD-OCT was restricted to the central field (1 mm in diameter) Intravitreous Injection of Anti-VEGF

For Nc1ccn([C@@H]2CS[C@H](CO)O2)c(=O)n1 [Lamivudine], the “Model-based contrast: change in visual acuity, Lamivudine vs. Aflibercept” value [1] was 3.73, the “Model-based contrast: change in visual acuity, Lamivudine vs. Bevacizumab” value [1] was 6.83 and the “Model-based contrast: change in visual acuity, Lamivudine vs. Ranibizumab” value [1] was 5.04. The “Mixed effect model: change from baseline visual acuity, treatment estimate (ref: Placebo)” value (shortened to “Mixed effect model: change”) ([1]; IPTW model with synthetic controls) was 12.15, the “Mixed effect model: change” value ([1]; IPTW model with synthetic controls, listed as lamivudine) was 12.2 and the “Model-based contrast: change in visual acuity, Lamivudine vs. Aflibercept” value ([1]; listed as lamivudine) was 3.7. The “Model-based contrast: change in visual acuity, Lamivudine vs. Bevacizumab” value ([1]; listed as lamivudine) was 6.8, the “Model-based contrast: change in visual acuity, Lamivudine vs. Ranibizumab” value ([1]; listed as lamivudine) was 5.0 and the “Mixed effect model: change” value ([1]; Original (unweighted) model with synthetic controls) was 11.19. For the same compound, the “Mixed-effect model: change in visual acuity from baseline, Lamivudine vs Placebo” value [1] was 10.88, the “Mixed-effect model: change in visual acuity from baseline, Lamivudine vs. Aflibercept” value [1] was 2.33 and the “Mixed-effect model: change in visual acuity from baseline, Lamivudine vs. Bevacizumab” value [1] was 8.95. The “Mixed-effect model: change in visual acuity from baseline, Lamivudine vs. Ranibizumab” value [1] was 7.24, the “Mixed-effect model: change in visual acuity from baseline, Lamivudine vs Placebo” value ([1]; listed as lamivudine) was 10.9 and the “Mixed-effect model: change in visual acuity from baseline, Lamivudine vs. Aflibercept” value ([1]; listed as lamivudine) was 2.3. The “Mixed-effect model: change in visual acuity from baseline, Lamivudine vs. Bevacizumab” value ([1]; listed as lamivudine) was 9, the “Mixed-effect model: change in visual acuity from baseline, Lamivudine vs. Ranibizumab” value ([1]; listed as lamivudine) was 7.3 and the “degree of photoreceptor protection” value [2] was 38%+10%. For the same compound, the “IPTW mixed-effect model: change in central subfield thickness, Treatment × week [8] estimate” value ([3]; IPTW model, interaction term) was 41.98 μm, the “IPTW mixed-effect model: change in central subfield thickness from baseline, treatment estimate (ref = Placebo)” value ([3]; IPTW model, main effect (week 4)) was −48.84 μm and the “IPTW contrast: change in central subfield thickness, Lamivudine vs Bevacizumab” value ([3]; week 4) was 17.5 μm. For the same compound, the “IPTW contrast: change in central subfield thickness, Lamivudine vs Placebo” value ([3]; week 4) was −48.84 μm, the “IPTW contrast: change in central subfield thickness, Lamivudine vs. Aflibercept” value ([3]; week 4) was 55.49 μm and the “IPTW contrast: change in central subfield thickness, Lamivudine vs. Ranibizumab” value ([3]; week 4) was 64.83 μm. For the same compound, the “IPTW contrast: change in central subfield thickness, Lamivudine vs. Aflibercept” value ([3]; week 4, listed as lamivudine) was 55 μm, the “IPTW contrast: change in central subfield thickness, Lamivudine vs. Ranibizumab” value ([3]; week 4, listed as lamivudine) was 65 μm and the “IPTW contrast: change in central subfield thickness, Lamivudine vs Bevacizumab” value ([3]; week 8) was −15.34 μm. For the same compound, the “IPTW contrast: change in central subfield thickness, Lamivudine vs Placebo” value ([3]; week 8) was −6.86 μm, the “IPTW contrast: change in central subfield thickness, Lamivudine vs. Aflibercept” value ([3]; week 8) was 28.93 μm and the “IPTW contrast: change in central subfield thickness, Lamivudine vs. Ranibizumab” value ([3]; week 8) was 31.81 μm. For the same compound, the “Propensity score matched contrast: change in central subfield thickness, Lamivudine vs. Aflibercept” value ([3]; week 4) was 92.6 μm, the “Propensity score matched contrast: change in central subfield thickness, Lamivudine vs. Bevacizumab” value ([3]; week 4) was 12.6 μm and the “Propensity score matched contrast: change in central subfield thickness, Lamivudine vs. Placebo” value ([3]; week 4) was −47.7 μm. The “Propensity score matched contrast: change in central subfield thickness, Lamivudine vs. Ranibizumab” value ([3]; week 4) was 115.7 μm, the “Propensity score matched contrast: change in central subfield thickness, Lamivudine vs. Aflibercept” value ([3]; week 4, listed as lamivudine) was 93 μm and the “Propensity score matched contrast: change in central subfield thickness, Lamivudine vs. Ranibizumab” value ([3]; week 4, listed as lamivudine) was 116 μm. For the same compound, the “Propensity score matched contrast: change in central subfield thickness, Lamivudine vs. Aflibercept” value ([3]; week 8) was 21.2 μm, the “Propensity score matched contrast: change in central subfield thickness, Lamivudine vs. Bevacizumab” value ([3]; week 8) was −63.4 μm and the “Propensity score matched contrast: change in central subfield thickness, Lamivudine vs. Placebo” value ([3]; week 8) was −38.1 μm. For the same compound, the “Propensity score matched contrast: change in central subfield thickness, Lamivudine vs. Ranibizumab” value ([3]; week 8) was 37.1 μm, the “Mixed-effect model: change in central subfield thickness, Treatment × week [8] estimate” value ([3]; unweighted model, interaction term) was 3.8 μm and the “Mixed-effect model: change in central subfield thickness from baseline, treatment estimate (ref = Placebo)” value ([3]; unweighted model, main effect (week 4)) was −44.91 μm. The “Contrast: change in central subfield thickness, Lamivudine vs Bevacizumab” value ([3]; unweighted model, week 4) was 30.65 μm, the “Contrast: change in central subfield thickness, Lamivudine vs Placebo” value ([3]; unweighted model, week 4) was −44.91 μm and the “Contrast: change in central subfield thickness, Lamivudine vs. Aflibercept” value ([3]; unweighted model, week 4) was 69.64 μm. For the same compound, the “Contrast: change in central subfield thickness, Lamivudine vs. Ranibizumab” value ([3]; unweighted model, week 4) was 77.22 μm, the “Contrast: change in central subfield thickness, Lamivudine vs Bevacizumab” value ([3]; unweighted model, week 8) was −50.42 μm and the “Contrast: change in central subfield thickness, Lamivudine vs Placebo” value ([3]; unweighted model, week 8) was −41.1 μm. For the same compound, the “Contrast: change in central subfield thickness, Lamivudine vs. Aflibercept” value ([3]; unweighted model, week 8) was −1.39 μm, the “Contrast: change in central subfield thickness, Lamivudine vs. Ranibizumab” value ([3]; unweighted model, week 8) was −4.66 μm and the “percentage of eyes with VALS improvement of 15 or more that had minimal improvement in central subfield thickness (≤50 μm)” value ([3]; week 8, lamivudine group) was 64%.
